# Experimental data as given in patent US12435083B2, “Cyclopropyl-(hetero)aryl-substituted ethylsulphonyl-pyridine derivatives” (BOEHRINGER INGELHEIM VETMEDICA GMBH, priority 2021, dated 2025).
# Read-outs that look alike come from different tables or passages of the source.
# Key:
# [1] = test system: adult Rhipicephalus sanguineus ticks; assay: Contact activity against adult Rhipicephalus sanguineus (coated vial, mortality at 48 h); settings: for activity against ticks (tick contact assay), in words: in vitro profiling
# Procedure: Example 5: Screening Method to Test Contact Activity of Compounds of Formula (I) Against Adult Rhipicephalus sanguineus
# Compounds of formula (I) formulated in 100% DMSO were diluted in a solution containing acetone and Triton X-100 (0.02%). The resulting formulation was used to coat the inner walls of glass scintillation vials and the filter paper covering the cap of the vial. Once dried, ten adult R. sanguineus ticks were added to the vials. The vials were incubated at 24° C., 95% relative humidity, and 12 hours of light/12 hours of dark until evaluation. Ticks were visually evaluated for mortality at 48 hours post-treatment. Compound efficacy at a given dose is expressed as percentage mortality. A dose response series was implemented to determine EC50 values.
# (§1) The four structurally closest prior art compounds (A), (B), (C) and (D) specifically excluded from the scope of formula (I) were characterized vis-a-vis selected compounds of formula (I) with regard to their potency in in vitro screening assays against fleas (Ctenocehalides felis) and ticks (Rhipicephalus sanguineus).
# (§2) However, as explained above, spectrum of action against this range of species (i.e. fleas and ticks) is a desirable property of ectoparasiticides for veterinary use. In the following table 1 comparative experimental data of the in vitro assays are shown regarding flea membrane feeding (ingestion, blood feeding) activity against Ctenocephalides felis and contact activity against Rhipicephalus sanguineus.
# [2] = test system: adult Ctenocephalides felis fleas; assay: Ingestion activity (flea membrane feeding, blood feeding) against adult Ctenocephalides felis; settings: for activity against fleas (flea membrane feeding and flea contact assays), in words: in vitro profiling
# Description: Example 6: Screening Method to Test Ingestion Activity of Compounds of Formula (I) Against Adult Ctenocephalides felis
# as §1
# It is important to note that compounds that show better activity versus ticks are more desirable in the animal health field, as ticks are more difficult to control than fleas. Noteworthy, in particular with regard to fleas the illustrated comparative data are based on a flea membrane feeding (ingestion, blood feeding) assay. Data from this assay are more relevant for compounds intended to be delivered systemically to an animal via oral or injectable routes. Membrane feeding assays differ to primary screening laboratory contact assays in that the latter only measure the effect of the direct contact of selected compounds on the parasite, such as the flea or the tick. The information derived from laboratory contact assays is strictly limited to the ability of the compound to be absorbed through the parasite surface and to reach its molecular target, and no information can be gleaned from these contact assays as to whether the compound would also be active when presented orally to the ectoparasite itself in a blood meal, such as with the membrane feeding assay, and certainly not when administered orally to an animal host (e.g. “in vivo”) with subsequent exposure to the ectoparasite.
# as §2
# [3] = test system: adult Ctenocephalides felis fleas; assay: Contact activity against adult Ctenocephalides felis (treated surface, motility by machine vision, 24 h); settings: treated surface, 24h, read-out: EC80 (% motility reduction, adult C. felis, contact)
# Description: Example 7: Screening Method to Test Contact Activity of Compounds of Formula (I) Against Adult Ctenocephalides felis
# Plutella xylostella = assay: Insecticidal test on Plutella xylostella (Chinese cabbage seedling dip); settings: 144 h, 500 ppm, seedling dip, 6 days after dip treatment, read-out: activity level (corrected mortality rate), Plutella xylostella
# Procedure: Example 12: Insecticidal Test on Plutella xylostella
# The compounds of formula (I) of the present invention or salts thereof were separately dispersed in water and diluted to 500 ppm. Ten adults of Plutella xylostella were released onto Chinese cabbage seedlings and allowed to lay eggs thereon. 2 days after the release of the adults, the seedling was dipped in the dispersion for about 30 seconds. After air dried, the seedling was kept in a room at 25° C. 6 days after the dip treatment, the numbers of the dead and alive insects were counted. The corrected mortality rate was calculated according to the following formula and the insecticidal activity was evaluated according to the following criteria. Corrected mortality rate (%)=100×(Survival rate in an untreated plot−Survival rate in a treated plot)/Survival rate in an untreated plot • A: the corrected mortality rate is 100% • B: the corrected mortality rate is 90 to 99% • C: the corrected mortality rate is 80 to 89% • D: the corrected mortality rate is 50 to 79%
# [4] = contact assay, >100 μM = not active at the top concentration, read-out: R. sanguineus contact activity EC50
# [5] = flea membrane feeding (ingestion, blood feeding) assay, EC80
# [6] = flea membrane feeding (ingestion, blood feeding) assay, EC80, read-out: C. felis membrane feeding (ingestion/blood feeding) activity EC80
# [7] = Rhipicephalus sanguineus, contact assay, >100 μM = not active at the top concentration, read-out: R. sanguineus contact activity EC50
# [8] = Ctenocephalides felis, 24 h, flea membrane feeding (ingestion, blood feeding) assay, EC80, read-out: C. felis membrane feeding (ingestion/blood feeding) activity EC80
# [9] = Rhipicephalus sanguineus, 48 hours post-treatment, coated vial, read-out: EC50 (percentage mortality, adult R. sanguineus, contact)
# [10] = Ctenocephalides felis, bovine blood, 24h post treatment, read-out: EC80 (% motility reduction, adult C. felis, ingestion via membrane feeding)
compound,measurement,setting,value
CCS(=O)(=O)c1cc(-c2cc(C3CC3)nc(C)n2)cnc1-c1nc2cc(C(F)(F)C(F)(F)F)nnc2n1C [compound 142],EC50,[1]; [4],10 to 100 µM
same,C. felis membrane feeding (ingestion/blood feeding) activity EC80,[2]; [5],1 to 10 µM
"CCS(=O)(=O)c1cc(-c2ccc(C3CC3)cc2)cnc1-n1cc2ncc(C(F)(F)F)cc2n1 [Compound 48, 5-(4-cyclopropylphenyl)-3-(ethanesulfonyl)-2-[6-(trifluoromethyl)pyrazolo[4,3-b]pyridin-2-yl]pyrid-ine]",EC80,[3],1 to 10 µM
CCS(=O)(=O)c1cc(-c2ccc(C3CC3)cc2)cnc1-c1nc2cc(C(F)(F)F)cn(CC(F)F)c-2c1F [compound 12],EC50,[1]; [4],10 to 100 µM
same,EC80,[2]; [6],<1 µM
CCS(=O)(=O)c1cc(-c2ccc(C3CC3)cc2)cnc1-c1cc2n(C(F)F)cc(C(F)(F)F)cc-2n1 [Compound 97],EC50,[1]; [7],10 to 100 µM
same,EC80,[2]; [8],< 1 µM
same,mortality at 500 ppm,Plutella xylostella,100%
CCS(=O)(=O)c1cc(-c2ccc(C3CC3)nc2)cnc1-c1nc2cc(SC(F)(F)F)nnc2n1C [compound 186],EC50,[1]; [4],< 10 µM
same,EC80,[2]; [6],<1 µM
CCS(=O)(=O)c1cc(-c2cccnc2C2CC2)cnc1-c1nc2cc(C(F)(F)C(F)(F)F)cnc2n1C [compound 169],EC50,[1]; [4],10 to 100 µM
same,C. felis membrane feeding (ingestion/blood feeding) activity EC80,[2]; [5],1 to 10 µM
CCS(=O)(=O)c1cc(-c2ccc(C3(F)CC3)cc2)cnc1-c1nc2cc(C(F)(F)F)n(C3CC3)c(=O)c2n1C [compound 124],EC50,[1]; [4],10 to 100 µM
same,C. felis membrane feeding (ingestion/blood feeding) activity EC80,[2]; [5],1 to 10 µM
CCn1cc(C(F)(F)F)cc2nc(-c3ncc(-c4cccc(C5CC5)n4)cc3S(=O)(=O)CC)cc1-2 [compound 113],mortality at 500 ppm,Plutella xylostella,100%
"CCS(=O)(=O)c1cc(-c2ccc(C3CC3)cc2)cnc1-n1ncc2ncc(C(F)(F)C(F)(F)F)cc21 [Compound 191, 5-(4-cyclopropylphenyl)-3-(ethanesulfonyl)-2-[6-(1,1,2,2,2-pentafluoroethyl)-1H-pyrazolo[4,3-b]pyridin-1-yl]pyridine]",mortality at 500 ppm,Plutella xylostella,100%
"CCS(=O)(=O)c1cc(-c2nc(C)cc(C3CC3)n2)cnc1-c1nc2cc(C(F)(F)F)ncc2n1C [(C), reference compound]","activity against ticks (tick contact assay), in words",[1]; Rhipicephalus sanguineus,no activity
same,EC50,[1]; [7],> 100 µM
same,EC80,[2]; [8],> 10 µM
same,"activity against fleas (flea membrane feeding and flea contact assays), in words",[2]; Ctenocephalides felis,some activity
"CCS(=O)(=O)c1cc(-c2ccc(C3CC3)cn2)cnc1-n1ncc(OCC(F)(F)C(F)(F)F)cc1=O [(D), reference compound]","activity against ticks (tick contact assay), in words",[1]; Rhipicephalus sanguineus,no activity
same,EC50,[1]; [7],> 100 µM
same,EC80,[2]; [8],> 10 µM
same,"activity against fleas (flea membrane feeding and flea contact assays), in words",[2]; Ctenocephalides felis,some activity
"CCS(=O)(=O)c1cc(-c2ccc(C3(F)CC3)nc2)cnc1-c1nc2cc(C(F)(F)F)n(C3CC3)c(=O)c2n1C [Compound 176, 5-cyclopropyl-2-[5-(ethanesulfonyl)-6′-(1-fluorocyclopropyl)-[3,3′-bipyridin]-6-yl]-3-methyl-6-(trifluoromethyl)imidazo[4,5-c]pyridin-4-one]",EC50,[1]; [9],10 to 100 µM
same,EC80,[2]; [10],1 to 10 µM
"CCS(=O)(=O)c1cc(-c2ccc(C3(C#N)CC3)cc2)cnc1-n1ncc2ccc(C(F)(F)F)cc2c1=O [(A), reference compound]","activity against ticks (tick contact assay), in words",[1]; Rhipicephalus sanguineus,no activity
same,EC50,[1]; [7],> 100 µM
same,EC80,[2]; [8],> 10 µM
same,"activity against fleas (flea membrane feeding and flea contact assays), in words",[2]; Ctenocephalides felis,some activity
CCS(=O)(=O)c1cc(-c2nccc(C3CC3)n2)cnc1-c1nc2cc(C(F)(F)C(F)(F)F)cnc2n1C [compound 165],EC50,[1]; [4],10 to 100 µM
same,EC80,[2]; [6],<1 µM
CCS(=O)(=O)c1cc(-c2cc(C3CC3)nc(C)n2)cnc1-c1nc2cc(C(F)(F)C(F)(F)F)cnc2n1C [compound 166],EC50,[1]; [4],10 to 100 µM
same,EC80,[2]; [6],<1 µM
CCS(=O)(=O)c1cc(-c2ccc(C3(C#N)CC3)cc2)cnc1-c1nc2cc(C(F)(F)F)n(C3CC3)c(=O)c2n1C [compound 88],EC50,[1]; [4],10 to 100 µM
same,C. felis membrane feeding (ingestion/blood feeding) activity EC80,[2]; [5],1 to 10 µM
CCS(=O)(=O)c1cc(-c2ccc(C3CC3)nn2)cnc1-c1nc2cc(C(F)(F)C(F)(F)F)cnc2n1C [compound 153],EC50,[1]; [4],10 to 100 µM
same,C. felis membrane feeding (ingestion/blood feeding) activity EC80,[2]; [5],1 to 10 µM
"CCn1c(=O)c(C(F)(F)F)cc2nc(-c3ncc(-c4ccc(C5CC5)cc4)cc3S(=O)(=O)CC)n(C)c21 [compound 214, 2-[5-(4-cyclopropylphenyl)-3-(ethanesulfonyl)pyridin-2-yl]-4-ethyl-3-methyl-6-(trifluoromethyl)-3H,4H,5H-imidazo[4,5-b]pyridin-5-one]",EC80,[2]; [10],< 1 µM
"CCS(=O)(=O)c1cc(-c2ccc(C3(C#N)CC3)cc2)cnc1-n1nc2ccc(C(F)(F)F)cn2c1=O [(B), reference compound]","activity against ticks (tick contact assay), in words",[1]; Rhipicephalus sanguineus,no activity
same,EC50,[1]; [7],> 100 µM
same,EC80,[2]; [8],> 10 µM
same,"activity against fleas (flea membrane feeding and flea contact assays), in words",[2]; Ctenocephalides felis,some activity
CCS(=O)(=O)c1cc(-c2ccc(C3(C#N)CC3)cc2)cnc1-c1nc2cc(C(F)(F)C(F)(F)F)cnc2n1C [compound 80],EC50,[1]; [4],10 to 100 µM
same,EC80,[2]; [6],<1 µM
CCS(=O)(=O)c1cc(-c2ccc(C3CC3)nc2)cnc1-c1nc2cc(C(F)(F)F)n(C3CC3)c(=O)c2n1C [compound 89],EC50,[1]; [4],10 to 100 µM
same,C. felis membrane feeding (ingestion/blood feeding) activity EC80,[2]; [5],1 to 10 µM
"CCS(=O)(=O)c1cc(-c2ccc(C3CC3)cc2)cnc1-n1cc2ccc(C(F)(F)F)cc2n1 [Compound 46, 2-[5-(4-cyclopropylphenyl)-3-(ethanesulfonyl)pyridin-2-yl]-6-(trifluoromethyl)indazole]",EC50,[1]; [9],10 to 100 µM
same,EC50,[1]; [7],10 to 100 µM
same,EC80,[2]; [8],1 to 10 µM
same,EC80,[2]; [10],1 to 10 µM
CCS(=O)(=O)c1cc(-c2ccc(C3CC3(F)F)cc2)cnc1-c1nc2cc(C(F)(F)C(F)(F)F)nnc2n1C (centres unmarked) [compound 135],EC50,[1]; [4],10 to 100 µM
same,C. felis membrane feeding (ingestion/blood feeding) activity EC80,[2]; [5],1 to 10 µM
"C=CCn1cc(C(F)(F)F)cc2nc(-c3ncc(-c4ccc(C5(C#N)CC5)cc4)cc3S(=O)(=O)CC)c(F)c1-2 [Compound 198, 1-{4-[5-(ethanesulfonyl)-6-[3-fluoro-4-(prop-2-en-1-yl)-6-(trifluoromethyl)pyrrolo[3,2-b]pyridin-2-yl]pyridin-3-yl]phenyl}cyclopropane-1-carbonitrile]",EC80,[2]; [10],1 to 10 µM
CCS(=O)(=O)c1cc(-c2ccc(C3(C#N)CC3)nc2)cnc1-c1nc2cc(C(F)(F)F)n(C3CC3)c(=O)c2n1C [compound 133],EC50,[1]; [4],10 to 100 µM
same,C. felis membrane feeding (ingestion/blood feeding) activity EC80,[2]; [5],1 to 10 µM
